This is an account of results in US20170052177A1, “COMPETITION ASSAY” (PharmaDiagnostics NV, priority 2014, published 2017).

Ends that are not written are not given here.

For one test, the target named is Neutravidin (Gallus gallus, UniProt P02701). The experiment in a line: LSPR competition assay: Neutravidin pre-incubated with HABA or biotin, then biotin-GNR conjugate. In kind it is binding. The note with it: for ΔRU as a function of the HABA and biotin concentration: fixed Neutravidin, biotin-GNR conjugate, final DMSO 5 w %, increasing concentration of added compound (FIG. 2). From the text:
Gold nanorods (GNRs) which are coated with mercaptoundecanoic acid (MUDA) were provided in suspension. The MUDA-coated GNRs provide an outer layer of carboxyl functional groups on their surface. For the conjugation of biotin to the GNRs, a biotin derivative (amino-PEG4-biotin) was used containing a polyethyleneglycol linker (4 monomers) having an amino functional group. More particularly, the carboxyl groups on the GNRs were activated using ethyl(dimethylaminopropyl) carbodiimide (EDC) and N-hydroxysuccinimide (NHS). Then, amino-PEG4-biotin was coupled via its amino functional group to the carboxyl groups provided on the GNRs, thereby providing a biotin-GNR conjugate. Potentially remaining unreacted carboxylic acid groups were blocked via reaction with 2-(2-aminoethoxy)ethanol (AEE). The biotin-GNR conjugate was purified from unreacted EDC, NHS, amino-PEG4-biotin and AEE by buffer exchange using a centrifugal ultrafiltration device.
The determination of the inhibition of the interaction between HABA and Neutravidin according to the methods described herein involves contacting the biotin-GNR conjugate with Neutravidin. The optimal amount of Neutravidin to be contacted with the conjugate was determined via titration. More particularly, a fixed amount of biotin-GNR was incubated with various concentrations of Neutravidin, and the absorbance spectra after incubation was recorded. ΔRU was calculated and plotted as a function of the Neutravidin concentration (FIG. 1). Suitable Neutravidin concentrations are determined as those concentrations which are sufficiently high to provide a detectable signal (ΔRU), provided that the signal is not in the plateau of the dose-response curve. Optimal concentrations are those providing a signal in the linear response range.
A fixed amount of Neutravidin was pre-incubated with different concentrations of HABA and biotin, followed by incubation with a fixed amount of biotin-GNR conjugate. HABA was provided as a solution in DMSO. […] The relative amounts of biotin-GNR and Neutravidin used are determined via titration as described above (A2). […]

The next test addresses MDM2 (Homo sapiens, UniProt Q00987). The experiment in a line: LSPR competition assay: MDM2 pre-incubated with nutlin-3 or p53, then p53-GNR conjugate. To be noted: fixed MDM2, p53-GNR conjugate; increasing concentration of added compound (FIGS. 4A and 4B). In kind it is binding.

Neutravidin, sequence (P02701 25-152): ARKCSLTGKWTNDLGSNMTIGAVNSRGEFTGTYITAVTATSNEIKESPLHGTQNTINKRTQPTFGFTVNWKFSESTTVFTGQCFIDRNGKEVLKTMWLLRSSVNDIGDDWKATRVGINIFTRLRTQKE
MDM2, sequence (Q00987 whole entry, species assumed): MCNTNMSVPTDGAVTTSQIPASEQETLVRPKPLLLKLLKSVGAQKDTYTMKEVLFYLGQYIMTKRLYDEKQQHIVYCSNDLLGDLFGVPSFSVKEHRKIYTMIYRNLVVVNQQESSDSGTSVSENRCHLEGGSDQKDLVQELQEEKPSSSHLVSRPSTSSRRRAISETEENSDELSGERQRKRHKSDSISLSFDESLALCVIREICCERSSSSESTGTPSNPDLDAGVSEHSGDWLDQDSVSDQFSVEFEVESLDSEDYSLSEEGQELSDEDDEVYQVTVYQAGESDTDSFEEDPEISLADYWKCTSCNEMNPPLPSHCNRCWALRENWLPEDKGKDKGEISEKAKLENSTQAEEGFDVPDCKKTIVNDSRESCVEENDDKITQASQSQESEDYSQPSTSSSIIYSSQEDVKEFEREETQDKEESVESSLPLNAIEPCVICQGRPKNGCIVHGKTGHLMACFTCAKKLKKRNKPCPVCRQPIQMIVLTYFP
Description for MDM2: The determination of the inhibition of the interaction between MDM2 and p53 according to the methods described herein involves contacting the p53-GNR conjugate with MDM2. The optimal amount of MDM2 to be contacted with the conjugate was determined via a similar titration experiment as described above for Neutravidin (A2). ΔRU was calculated and plotted as a function of the MDM2 concentration (FIG. 3).

As to `O=C(O)c1ccccc1N=Nc1ccc(O)cc1` [HABA, (2-(4-hydroxyazobenzene)benzoic acid)], the “ΔRU as a function of the HABA and biotin concentration” value on Neutravidin was “ΔRU decreases”. Further, on Neutravidin (from concentration needed for significant reduction of ΔRU (FIG. 2)), the “relative affinity to Neutravidin” value is reported as “lower affinity to Neutravidin than biotin”.
As for `O=C(O)CCCC[C@@H]1SC[C@@H]2NC(=O)N[C@@H]21` [biotin], at Neutravidin, the “ΔRU as a function of the HABA and biotin concentration” value is “ΔRU decreases”.
As for “p53: p53 peptide (Sequence: CGSGSGSGSGSRFMDYWEGL); p53 protein also known as cellular tumor antigen p53 (also: conjugated to gold nanorods, site not given here)”, the “ΔRU as a function of the added amount of nutlin-3 and p53” value with MDM2 was “ΔRU decreases”.
